Data published in patent US7541381B2, “Non-covalent inhibitors of AmpC β-lactamase” (Northwestern University, priority 2002, dated 2009).
≈ marks a conversion by molar mass, not a printed value. Entries after “also recorded” stand apart in the source; their conditions may differ.

Tests used:
AmpC β-lactamase = biological target: T1, AmpC β-lactamase (Escherichia coli, UniProt P00811); test: biochemical; format: biochemical; details: for Ki: 50 mM TRIS pH 7.0, nitrocefin substrate, progress curve analysis; for change of AmpC inhibition/binding relative to compound 1: analogs of 1
T1 construct: made in house
Description: Enzymology. AmpC from Escherichia coli was expressed and purified to homogeneity as described in the literature. […] All were used without further purification. Kinetic measurements with AmpC were performed in 50 mM TRIS buffer, pH 7.0, using nitrocefin as a substrate. […] Reactions were initiated by the addition of 0.875 nM enzyme and monitored in methacrylate cuvettes. […] Ki values for the compounds were obtained by comparison of progress curves in the presence and absence of inhibitor.

[1] = test system: JM109 E. coli expressing AmpC; test: Antimicrobial susceptibility testing (MIC), AmpC-expressing strain; format: cell-based
Description: (§1) Antimicrobial experiments. Susceptibility testing was performed and interpreted following the guidelines of the National Committee for Clinical Laboratory Standards. To test the inhibitory activity of 1, the compound was dissolved in 50% DMSO and dilutions were performed using Luria Broth growth medium.

[2] = test system: JM109 that does not express AmpC; test: Antimicrobial susceptibility testing (MIC), strain without AmpC; format: cell-based, E. coli; details: Escherichia coli, read-out: MIC of ampicillin in JM109 that does not express AmpC
Description: as §1

elastase = biological target: T2, elastase (Sus scrofa, UniProt P00772); test: elastase selectivity counter-screen; format: biochemical, porcine
T2 construct: purchased Sigma (St. Louis, Mo.); host or cells: porcine pancreas
Description: (§2) The substrates for α-chymotrypsin (succinyl-ala-ala-pro-phe-p-nitroanilide) and β-trypsin (N-benzoyl-L-arginine ethyl ester, BAEE) were also purchased from Sigma. The elastase substrate used (elastase substrate 1, MeOSuc-Ala-Ala-Pro-Val-pNA) was purchased from Calbiochem (San Diego, Calif.). Substrates were diluted from 10 mM DMSO stock solutions, and all reactions were performed in 50 mM TRIS buffer, pH 7.0, 25° C. For α-chymotrypsin, 200 μM of substrate was used; the reactions were initiated by addition of 10 μL of a 0.1 mg/ml enzyme stock solution and monitored at 410 nm. For β-trypsin, 200 μM of BAEE was used, the reactions were initiated by the addition of 5 μL of a 0.2 mg/ml enzyme stock solution, and monitored at 260 nm. For elastase, 640 μM of elastase substrate was used, the reactions were initiated by the addition of 30 μL of a 0.2 mg/mL enzyme stock solution, and monitored at 385 nm. Initial rate fits to the absorbance data for the first 150 seconds of each reaction were used to determine reaction velocities.

β-trypsin = biological target: T3, β-trypsin (Bos taurus, UniProt P00760); test: biochemical; format: biochemical, bovine
T3 construct: β-trypsin (bovine pancreatic); purchased Sigma (St. Louis, Mo.); host or cells: bovine pancreas
Description: as §2

related serine amidases = test: Counter-screens against related serine amidases; format: biochemical
Description: as §2

α-chymotrypsin = biological target: T4, α-chymotrypsin (Bos taurus, UniProt P00766); test: biochemical; parameters: species or system bovine; details: 200 μM substrate, 50 mM TRIS pH 7.0, 25° C.
T4 construct: purchased Sigma (St. Louis, Mo.); host or cells: bovine pancreas
Description: as §2

T1 sequence (P00811 20-377): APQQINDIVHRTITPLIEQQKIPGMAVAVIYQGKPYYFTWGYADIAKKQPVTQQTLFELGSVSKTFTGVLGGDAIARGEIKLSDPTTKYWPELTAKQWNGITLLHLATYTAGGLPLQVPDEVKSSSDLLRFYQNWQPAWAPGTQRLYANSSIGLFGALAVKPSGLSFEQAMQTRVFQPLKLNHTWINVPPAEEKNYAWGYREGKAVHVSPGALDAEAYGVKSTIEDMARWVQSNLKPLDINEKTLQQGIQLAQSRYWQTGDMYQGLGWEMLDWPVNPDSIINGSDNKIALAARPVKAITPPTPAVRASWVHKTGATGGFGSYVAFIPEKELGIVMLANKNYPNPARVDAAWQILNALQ
T2 sequence (P00772 27-266): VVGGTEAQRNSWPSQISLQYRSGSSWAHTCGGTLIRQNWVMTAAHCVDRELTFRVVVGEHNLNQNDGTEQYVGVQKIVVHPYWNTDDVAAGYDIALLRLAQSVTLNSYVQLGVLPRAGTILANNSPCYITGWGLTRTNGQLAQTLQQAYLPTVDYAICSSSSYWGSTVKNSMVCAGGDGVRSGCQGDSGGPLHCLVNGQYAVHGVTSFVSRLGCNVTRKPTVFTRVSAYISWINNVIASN
T3 sequence (P00760 24-246): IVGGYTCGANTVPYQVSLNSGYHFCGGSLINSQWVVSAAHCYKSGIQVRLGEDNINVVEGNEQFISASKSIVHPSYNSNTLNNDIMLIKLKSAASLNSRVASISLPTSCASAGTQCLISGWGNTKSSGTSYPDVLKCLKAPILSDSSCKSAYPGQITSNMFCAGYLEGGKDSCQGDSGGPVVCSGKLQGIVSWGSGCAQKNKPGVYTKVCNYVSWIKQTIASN

With “3-([4-[3-chloro-5-(trifluoromethyl)pyridin-2-yl]piperazino]sulfonyl)thiophene-2-carboxylate [Compound 6]” the Ki (AmpC β-lactamase) was greater than 100 µM and the “change of AmpC inhibition/binding relative to compound 1” value (AmpC β-lactamase) was “hindered binding”.
Work on `CC1(C)S[C@@H]2[C@H](NC(=O)[C@H](N)c3ccccc3)C(=O)N2[C@H]1C(=O)O` [Ampicillin, ampicillin, reference compound] yielded an MIC ([1]; Escherichia coli, read-out: MIC JM109/AmpC) of 512 µg/mL (≈ 1470 µM) and an MIC [2] of 4 µg/mL.
`O=C(O)c1sccc1S(=O)(=O)Nc1ccc(Cl)cc1` [Compound 1, 3-[(4-chloroanilino)sulfonyl]thiophene-2-carboxylic acid] was tested, and the IC50 (elastase; 640 μM elastase substrate, 50 mM TRIS pH 7.0, 25° C.) was greater than 4000 µM, the inhibition of elastase (elastase; at concentrations up to 4 mM) was “no inhibition” and the IC50 (β-trypsin; 200 μM BAEE, 50 mM TRIS pH 7.0, 25° C.) was greater than 4000 µM. The inhibition of trypsin (β-trypsin; at concentrations up to 4 mM) was “no inhibition”, the “antibiotic activity of compound alone” value ([1]; at the concentration used in the ampicillin combination) was “no measurable antibiotic activity” and the “increase in efficacy of ampicillin” value ([1]; bacterial cell culture, resistant strain) was “four-fold”. The “minimum inhibitory concentration (MIC) of ampicillin in the presence of the compound” value ([1]; resistant strain overexpressing β-lactamase) was 128 µg/mL, the “inhibition of related serine amidases in counter-screens” value (related serine amidases) was “did not inhibit” and the “mode of inhibition of AmpC” value (AmpC β-lactamase) was “competitive, non-covalent inhibitor; also recorded: competitive, reversible inhibitor”. For the same molecule, the Ki (AmpC β-lactamase) was 23 µM and the IC50 (α-chymotrypsin) was greater than 1200 µM.
`O=S(=O)(O)CCCSc1nc2ccccc2s1` [Compound 2, 3-(2-benzothiazolylthio)-1-propanesulfonic acid] was tested, and the Ki (AmpC β-lactamase) was 318 µM.
Work on `O=C(O)CCSc1nc2ccccc2s1` [Compound 3, 3-(2-benzothiazolylthio)propionic acid] yielded a Ki (AmpC β-lactamase) of 646 µM.
With `Cc1ccc(S(=O)(=O)Nc2csc(C)c2C(=O)O)cc1` [Compound 4, 2-methyl-4-[[(4-methylphenyl)sulfonyl]amino]thiophene-3-carboxylic acid] the Ki (AmpC β-lactamase) was 60 µM and the “change of AmpC inhibition/binding relative to compound 1” value (AmpC β-lactamase) was “diminished inhibition three-fold; also recorded: reduced binding by three-fold”.
In the case of `COC(=O)c1sccc1S(=O)(=O)Nc1ccc(Cl)cc1` [Compound 5, methyl 3-[(4-chloroanilino)sulfonyl]thiophene-2-carboxylate], the Ki (AmpC β-lactamase) is reported as greater than 100 µM and the “change of AmpC inhibition/binding relative to compound 1” value (AmpC β-lactamase) is reported as “compromised inhibition; also recorded: binding was somewhat problematic”.
In the case of `O=C(O)c1sccc1S(=O)(=O)Nc1ccccc1N1CCCCC1` [Compound 7, 3-[(2-piperidinoanilino)sulfonyl]thiophene-2-carboxylic acid], the Ki (AmpC β-lactamase) is reported as 14 µM and the “change of AmpC inhibition/binding relative to compound 1” value (AmpC β-lactamase) is reported as “slight improvement in affinity”.
For `Cc1oc(C)c(S(=O)(=O)Nc2cccs2)c1C(=O)O` [Compound 8, 2,5-dimethyl-4-(2-thienylaminosulfonyl)furan-3-carboxylic acid], the Ki (AmpC β-lactamase) was 64 µM.
`COc1ccc(NS(=O)(=O)c2ccccc2[N+](=O)[O-])cc1` [Compound 9, N-(4-methoxyphenyl)-2-nitro-benzenesulfonamide] was tested, and the Ki (AmpC β-lactamase) was greater than 100 µM and the “change of AmpC inhibition/binding relative to compound 1” value (AmpC β-lactamase) was “compromised inhibition; also recorded: binding was somewhat problematic”.
With `O=C(Cc1cccs1)N[C@@H]1C(=O)N2C(C(=O)O)=C(/C=C/c3ccc([N+](=O)[O-])cc3[N+](=O)[O-])CS[C@H]12` [nitrocefin, reference compound] the Km (AmpC β-lactamase; read-out: Km of nitrocefin for AmpC, 50 mM TRIS buffer, pH 7.0) was 127 µM.
